Values of other authors in patent publication US20070122363A1, “CORPOREAL DELIVERY OF CAROTENOIDS” (priority 2005, published 2007).

Settings: 50 mg daily, about 22,000 male physicians, versus placebo

CC1=C(/C=C/C(C)=C/C=C/C(C)=C/C=C/C=C(C)/C=C/C=C(C)/C=C/C2=C(C)CCCC2(C)C)C(C)(C)CCC1 [beta-carotene, beta, beta-carotene]
adverse health effects: no adverse health effects
